Reference: patent US20200399329A1, “ANTIMICROBIAL PEPTIDES” (priority 2015, published 2020)
Where a SMILES comes first, the peptide text is derived from it.

Legend:
[1] = tested on: E. coli CR BAA-2452; assay type: cell-based, Escherichia coli; conditions: OMN6 12.5 μM, FIG. 6D
Experimental: In order to determine the MIC values of the peptides, growth and inhibition of various bacteria were monitored after treatment with the peptides of the invention (Table 6).
E. coli bacteria were cultured with or without OMN6 in increasing concentrations of 0.8-200 μM and with or without Fetal Bovine Serum 10% for 17-20 hours. The growth of the bacteria was continuously monitored via spectrophotometry at 600 nm. As bacterial growth progresses, OD600 nm values rise, and where the growth is inhibited OD600 nm values remain constant.
E. coli NDM1 is a Carbapenem resistant strain of bacteria. The experimental system described above was used to determine the antimicrobial effect of OMN6 on this bacteria compared to the antibiotic drug Imipenem (IPM), a member of the Carbapenem family of antibiotics. The MIC value for IPM on sensitive E. coli is 4 μg/ml, in a MIC above 8 μg/ml the bacteria is considered resistant.
The experimental system and parameters described here were used to determine the MIC values of OMN2, OMN6, OMN7 and OMN11 on various bacteria strains (Table 7 and Table 8).

[2] = Preliminary topical safety in mice; assay type: in vivo; conditions: topical single dose 0.5-4 mg/kg
Experimental: The antimicrobial peptide OMN6 was administered to mice in order to evaluate and quantify whether toxic effects are present. OMN6 peptide (C195H332N56O49S3) was administered topically according to concentrations and groups detailed in Table 9.
Mice approved for this experiment: Outbred Hsd:ICR (CD-1®)—weight 18-20 g. Saline solution (0.9% NaCl) as sham treatment or OMN6 dissolved in saline were administered directly onto the skin of mice after the hair was shaved. A total volume of 16 μl was administered to each animal.
In this experiment, the peptide OMN6 of the invention was administered in a single dose, at four different concentrations (mg/kg). Mortality of mice in all experiment groups was monitored in comparison to a Sham (CTRL) group. Food and water consumption, post treatment, was monitored by individual weight measurements once every two days. At the end of the experiment, blood was taken from all animals and 200 μl of blood was separated and plasma was analyzed for erythrocyte hemolysis. • Experimental Map: • 1. Mice (six per group) were given a single-dose administration on day 1, according to group specification (Table 9). Food and water consumption (weight analysis) along with mortality of mice in all groups were monitored for four days post treatment. At the end of the five day trial, the animals were sacrificed. • 2. Free Hgb (hemoglobin) assay was performed on day 5, on all samples from all groups, for erythrocyte hemolysis analysis. • 3. Water/food availability, temperature and other conditions remained unchanged between the groups for the entire five day trial. • 4. Erythrocyte hemolysis analysis was performed via hemoglobin assay kit (Sigma-Aldrich, 3 Plaut St. Rehovot, Israel).

Question: With `CC[C@H](C)[C@H](NC(=O)CNC(=O)[C@H](CC(=O)O)NC(=O)[C@H](CCCNC(=N)N)NC(=O)[C@@H](NC(=O)[C@H](CC(N)=O)NC(=O)[C@H](CCC(N)=O)NC(=O)CNC(=O)[C@@H](NC(=O)[C@H](CCCCN)NC(=O)[C@H](CCC(=O)O)NC(=O)[C@@H](NC(=O)[C@H](CCCCN)NC(=O)[C@H](CCCCN)NC(=O)[C@H](Cc1ccccc1)NC(=O)[C@H](CC(C)C)NC(=O)[C@H](CCCCN)NC(=O)[C@H](Cc1c[nH]c2ccccc12)NC(=O)[C@H](CCCCN)NC(=O)[C@H](CS)NC(=O)[C@@H](N)CCSC)[C@@H](C)CC)C(C)C)[C@@H](C)CC)C(=O)N[C@H](C(=O)N[C@@H](CCCCN)C(=O)N[C@@H](C)C(=O)NCC(=O)N1CCC[C@H]1C(=O)N[C@@H](C)C(=O)N[C@H](C(=O)N[C@@H](C)C(=O)N[C@H](C(=O)N[C@H](C(=O)NCC(=O)N[C@@H](CCC(N)=O)C(=O)N[C@@H](C)C(=O)N[C@H](C(=O)N[C@@H](CCC(N)=O)C(=O)N[C@H](C(=O)N[C@@H](C)C(=O)N[C@@H](CCCCN)C(=O)N[C@@H](CS)C(N)=O)[C@@H](C)CC)[C@@H](C)O)C(C)C)C(C)C)C(C)C)[C@@H](C)CC` [OMN6] (H-MCKWKLFKKIEKVGQNIRDGIIKAGPAVAVVGQATQIAKC-NH2; N-terminus and C-terminus assumed) as the compound, how does the “Inhibition of growth of E. coli NDM1” value [1] read?
Answer: completely inhibited bacterial growth

Question: What about the “Clinical signs (diarrhea, bloody diarrhea, stand-on-end hair, apathy or restlessness)” value ([2]; 5-day experiment) of the same compound?
Answer: not observed

Question: What about the Mortality ([2]; 5-day experiment) of the same compound?
Answer: not observed

Question: And the “Toxic or otherwise adverse effects” value ([2]; 5-day experiment)?
Answer: does not exert any toxic or otherwise adverse effects

Question: What about the Weight-loss ([2]; 5-day experiment) of the same compound?
Answer: not observed

Question: What about the “Hemolysis of erythrocytes (Free Hgb assay)” value ([2]; day 5) of the same compound?
Answer: No evidence of hemolysis
